This passage reports OD450 results from US8344115B2, “Immunoassay for specific determination of S-adenosylmethionine and analogs thereof in biological samples” (priority 2008, dated 2013).

The test system of this assay is Rabbit antiserum (raised against AdaM-BSA). The assay can be described thus: Assay 1: end point competitive ELISA with rabbit antibody and antibody specificity (goat anti-rabbit strips, AdaM-HRP conjugate). Conditions: rabbit antiserum 1:12,500, duplicate. It counts as binding. As to the method: New Zealand White rabbits were used for polyclonal antibody production. Immunization (1 ml total volume) was carried out with subcutaneous injections at multiple sites. Initial injection utilizes 1:1 mixture of complete Freund Adjuvant and AdaM-BSA conjugate solution in PBS upon emulsification. Subsequent injections use incomplete Freund adjuvant. The immunization was on 21 days cycle schedule, the animals were bleed from the ear artery (rabbit sedated) between 7 to 14 days after injection, normally on the 10th day. The blood was then processed to serum via centrifugation to remove red blood cells and clots. Immune response was detected after three booster injections. See FIG. 1 for a typical positive antibody response (indicated by antibody titer determination) wherein NA005 and 006 are animal designation numbers, 0 represents pre-bleed, 1 represents the first bleed after 4 immunizations.
4-1. Assay 1 Assay (End Point) with Rabbit Antibody and Antibody Specificity
• 1. Goat anti-rabbit coated microtiter well strips. • 2. —Rabbit antiserum diluted in incubation buffer (IB: 10 mM phosphate, 150 mM NaCl, 0.2% BSA, 0.1% Tween 20, 0.1% Proclin, pH 7.4) • 3. An IB+Tris (100 mM) buffer, pH 8.5 • 4. Samples: • (a) SAMe toluenesulfonate (tosylate) disulfate at concentration from […] to 1.4×10^−5 M in IB containing BSA 0.5%, and use 0.5% BSA-IB as zero sample. • (b) SAH at concentration from zero and 1.4×10^−8 to 1.4×10^−4 M. • (c) Adenosine at concentration from zero and 5.6×10^−9 M. to 5.6×10^−5 M • (d) Guanosine at concentration from zero and 3.0×10^−9 M to 3.0×10^−5 M • 5. AdaM-HRP conjugate (diluted to HRP concentration @30 μg/mL) in IB. • 6. —HRP substrate: one reagent substrate solution NeA-blue Tetramethylbenzidine Substrate, Clinical Science Products, Inc., Mansfield, Mass. • 7. 1N phosphoric acid Procedure: • 1. —The rabbit antiserum was diluted 1:12,500 in IB and pre-incubated (60 μl/well) in goat-antirabbit coated strips for at least one hour. • 2. Excess antibody was then decanted, washed, and blot dry. • 3. To each well was then added 10 μl of the pH 8.5 IB+Tris buffer followed by 25 μl of samples. The mixture was incubated on a orbital shaker for 25 min. All samples were tested in duplicate except the zero sample, in 6 wells. • 4. Twenty five microliter (25 μl) of AdaM-HRP conjugate solution was then added and incubated for additional 25 min with shaking. • 5. The assay mixture was then decanted, washed, and blot dry. • 6. To each well was added 60 μl/well of HRP substrate and incubate for 15 min. • 7. Stop the substrate development with 120 μl/well of 1N phosphoric acid. • 8. Read OD450 on a Perkin Elmer Lambda (microtiter plate) Reader. Results: (See Table 1 below)

Consider `Nc1ncnc2c1ncn2[C@@H]1O[C@H](CO)[C@@H](O)[C@H]1O` [Adenosine], for which the OD450 runs as follows: (sample concentration 5.6E−5 (M)) 0.256; (sample concentration 5.6E−6 (M)) 0.300; (sample concentration 5.6E−7 (M)) 0.305; (sample concentration 5.6E−8 (M)) 0.339; (sample concentration 5.6E−9 (M)) 0.342.

In turn, `Nc1nc2c(ncn2[C@@H]2O[C@H](CO)[C@@H](O)[C@H]2O)c(=O)[nH]1` [Guanosine] displayed an OD450 (sample concentration 3.0E−5 (M)) of 0.371; an OD450 (sample concentration 3.0E−6 (M)) of 0.383; an OD450 (sample concentration 3.0E−7 (M)) of 0.374; an OD450 (sample concentration 3.0E−8 (M)) of 0.324; an OD450 (sample concentration 3.0E−9 (M)) of 0.350.

On to `Nc1ncnc2c1ncn2[C@@H]1O[C@H](CSCC[C@H](N)C(=O)O)[C@@H](O)[C@H]1O` [SAH, S-Adenosylhomocysteine], for which the OD450 is, setting by setting: (sample concentration 1.4E−4 (M)) 0.209; (sample concentration 1.4E−5 (M)) 0.244; (sample concentration 1.4E−6 (M)) 0.293; (sample concentration 1.4E−7 (M)) 0.323; (sample concentration 1.4E−8 (M)) 0.337.
